Values of other authors, collected in patent US20210316038A1, “ANTIBIOTIC ELUTING POLY(ESTER UREA) FILMS, MESHES AND POUCHES FOR INFECTION CONTROL OF IMPLANTABLE MEDICAL DEVICES” (The University of Akron, priority 2019, published 2021).

**Q.** For `Cc1nnc(SCC2=C(C(=O)O)N3C(=O)[C@@H](NC(=O)Cn4cnnn4)[C@H]3SC2)s1` [Cefazolin], which solubility in water is on record?
**A.** The solubility in water was “Cefazolin has high solubility in water (>100 mg/ml”.
